Laboratory results reported in PubChem BioAssay AID330 (DTP/NCI, 2004).
Values joined by “and” are separate entries in the source; they are usually repeats but may differ in a detail not shown here. Equal entries are not always repeated. Toxic doses and inconclusive results are not listed. Peptide text beside a SMILES is read from it.

Tested on: P388 leukemia ip, CD2F1 mice, survival T/C
Test: NCI In Vivo Anticancer Drug Screen. Data for tumor model P388 Leukemia (intraperitoneal) in CD2F1 (CDF1) mice
Details: endpoint: median survival time, higher = longer survival
Summary of the method: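 Mice carrying the transplanted tumor received test compound or vehicle. Survival was recorded in each group, and the value is the treated-group measurement divided by that of the vehicle-treated control group.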

[1] = dose: 12.5 mg/kg/injection, schedule: Q01DX009 (ip), vehicle: saline with Tween-80
[2] = dose: 25.0 mg/kg/injection, schedule: Q01DX009 (ip), vehicle: saline with Tween-80
[3] = dose: 50.0 mg/kg/injection, schedule: Q01DX009 (ip), vehicle: saline with Tween-80
[4] = dose: 100.0 mg/kg/injection, schedule: Q01DX009 (ip), vehicle: saline with Tween-80
[5] = dose: 200.0 mg/kg/injection, schedule: Q01DX009 (ip), vehicle: saline with Tween-80
[6] = dose: 60.0 mg/kg/injection, schedule: Q01DX005 (ip), vehicle: saline with Tween-80
[7] = dose: 120.0 mg/kg/injection, schedule: Q01DX005 (ip), vehicle: saline with Tween-80
[8] = dose: 50.0 mg/kg/injection, schedule: Q01DX005 (ip), vehicle: saline
[9] = dose: 100.0 mg/kg/injection, schedule: Q01DX005 (ip), vehicle: saline
[10] = dose: 200.0 mg/kg/injection, schedule: Q01DX005 (ip), vehicle: saline
[11] = dose: 50.0 mg/kg/injection, schedule: Q01DX005 (ip), vehicle: saline with Tween-80
[12] = dose: 100.0 mg/kg/injection, schedule: Q01DX005 (ip), vehicle: saline with Tween-80
[13] = dose: 200.0 mg/kg/injection, schedule: Q01DX005 (ip), vehicle: saline with Tween-80
[14] = dose: 50.0 mg/kg/injection, schedule: Q04DX002 (ip), vehicle: saline with Tween-80
[15] = dose: 100.0 mg/kg/injection, schedule: Q04DX002 (ip), vehicle: saline with Tween-80
[16] = dose: 50.0 mg/kg/injection, schedule: Q01DX005 (ip), vehicle: Klucel (hydroxypropylcellulose) (HPC)
[17] = dose: 100.0 mg/kg/injection, schedule: Q01DX005 (ip), vehicle: Klucel (hydroxypropylcellulose) (HPC)
[18] = dose: 200.0 mg/kg/injection, schedule: Q01DX005 (ip), vehicle: Klucel (hydroxypropylcellulose) (HPC)

With `COc1ccc2c(c1)nc(-c1ccccn1)n2CCc1ccccn1` the T/C (dose: 50.0 mg/kg/injection, schedule: Q04DX002 (ip), vehicle: Klucel (hydroxypropylcellulose) (HPC)) was 113 % of control, the T/C (dose: 100.0 mg/kg/injection, schedule: Q04DX002 (ip), vehicle: Klucel (hydroxypropylcellulose) (HPC)) was 101 % of control and the T/C (dose: 200.0 mg/kg/injection, schedule: Q04DX002 (ip), vehicle: Klucel (hydroxypropylcellulose) (HPC)) was 104 % of control. For the same compound, the T/C (dose: 400.0 mg/kg/injection, schedule: Q04DX002 (ip), vehicle: Klucel (hydroxypropylcellulose) (HPC)) was 101 % of control.
In the case of `CCOc1ccc(N=c2ccn3ccccc3c2)cc1`, the T/C (dose: 6.25 mg/kg/injection, schedule: Q01DX009 (ip), vehicle: saline with Tween-80) is reported as 102 % of control, the T/C [1] is reported as 110 % of control and the T/C [2] is reported as 111 % of control.
For `CSCCC1NC(=O)C(C(C)=Nc2ccccc2)=C1O` (centres undefined), the T/C [3] was 94 % of control, the T/C [4] was 92 % of control and the T/C [5] was 98 % of control. For the same compound, the T/C (dose: 400.0 mg/kg/injection, schedule: Q01DX009 (ip), vehicle: saline with Tween-80) was 99 % of control.
In the case of `C=CCOc1cc2c(cc1C(C)(C)c1ccc(OC)cc1)OCO2`, the T/C [6] is reported as 118 % of control and the T/C [7] is reported as 117 % of control.
For `CN1C(C)(C)CC(C)(O)CC1(C)C`, the T/C [8] was 91 % of control, the T/C [9] was 94 % of control and the T/C [10] was 106 % of control.
`O=c1[nH]nc(/C=C/C=C/c2ccccc2)c(=O)[nH]1` was tested, and the T/C (dose: 100.0 mg/kg/injection, schedule: Q01DX001 (ip), vehicle: saline) was 97 % of control, the T/C (dose: 200.0 mg/kg/injection, schedule: Q01DX001 (ip), vehicle: saline) was 101 % of control and the T/C (dose: 400.0 mg/kg/injection, schedule: Q01DX001 (ip), vehicle: saline) was 90 % of control.
For `CN(C)c1ccc(/C=N/c2nc(-c3ccccc3)cs2)cc1`, the T/C (dose: 50.0 mg/kg/injection, schedule: Q01DX009 (ip), vehicle: saline) was 115 % of control, the T/C (dose: 100.0 mg/kg/injection, schedule: Q01DX009 (ip), vehicle: saline) was 111 % of control and the T/C (dose: 200.0 mg/kg/injection, schedule: Q01DX009 (ip), vehicle: saline) was 101 % of control.
In the case of `NC(=S)NNCCC(=O)Nc1ccccc1C(F)(F)F`, the T/C [6] is reported as 94 % of control, the T/C [7] is reported as 94 % of control and the T/C (dose: 240.0 mg/kg/injection, schedule: Q01DX005 (ip), vehicle: saline with Tween-80) is reported as 96 % of control.
With `O=C(Cc1ccc(Cl)cc1)NCCc1ccccc1` the T/C [11] was 102 % of control, the T/C [12] was 102 % of control and the T/C [13] was 99 % of control.
In the case of `O=C(Nc1ccc(Cl)cc1)Nc1nnc2ncc3c(n12)CCCCCCCCCC3`, the T/C [6] is reported as 102 % of control and the T/C [7] is reported as 87 % of control.
For `CCOC(=O)[C]1([Pb]([CH3])([CH3])[CH3])N=NC(C(=O)OC)=C1C(=O)OC` (centres undefined), the T/C (dose: 0.78 mg/kg/injection, schedule: Q01DX009 (ip), vehicle: saline) was 89 % of control, the T/C (dose: 1.56 mg/kg/injection, schedule: Q01DX009 (ip), vehicle: saline) was 90 % of control and the T/C (dose: 3.12 mg/kg/injection, schedule: Q01DX009 (ip), vehicle: saline) was 90 % of control.
`CC(=O)C1=C(c2ccc([N+](=O)[O-])cc2)NC(=O)NC1c1ccco1` (centres undefined) was tested, and the T/C (dose: 100.0 mg/kg/injection, schedule: Q04DX003 (ip), vehicle: saline with Tween-80) was 95 % of control, the T/C (dose: 200.0 mg/kg/injection, schedule: Q04DX003 (ip), vehicle: saline with Tween-80) was 100 % of control and the T/C (dose: 400.0 mg/kg/injection, schedule: Q04DX003 (ip), vehicle: saline with Tween-80) was 100 % of control.
`NCC(=O)NCC(=O)O` (H-Gly-Gly-OH) was tested, and the T/C [8] was 100 % of control, the T/C [9] was 104 % of control and the T/C [10] was 100 % of control.
`CC(=O)Nc1nc(C(C)(C)C)c([N+](=O)[O-])s1` was tested, and the T/C [3] was 95 % of control, the T/C [4] was 104 % of control and the T/C [5] was 95 % of control.
In the case of `CCOC(=O)c1ccc(NC(=O)Nc2ccc(NC(C)=O)cc2)cc1`, the T/C (dose: 15.0 mg/kg/injection, schedule: Q01DX005 (ip), vehicle: Klucel (hydroxypropylcellulose) (HPC)) is reported as 95 % of control, the T/C (dose: 30.0 mg/kg/injection, schedule: Q01DX005 (ip), vehicle: Klucel (hydroxypropylcellulose) (HPC)) is reported as 96 % of control and the T/C (dose: 60.0 mg/kg/injection, schedule: Q01DX005 (ip), vehicle: Klucel (hydroxypropylcellulose) (HPC)) is reported as 87 % of control and 88 % of control and 93 % of control. The T/C (dose: 120.0 mg/kg/injection, schedule: Q01DX005 (ip), vehicle: Klucel (hydroxypropylcellulose) (HPC)) was 87 % of control and the T/C (dose: 240.0 mg/kg/injection, schedule: Q01DX005 (ip), vehicle: Klucel (hydroxypropylcellulose) (HPC)) was 87 % of control.
In the case of `N=C(N)c1ccc(N=Nc2c(O)ccc3c2[nH]c2ccccc23)cc1`, the T/C [11] is reported as 101 % of control, the T/C [12] is reported as 98 % of control and the T/C [13] is reported as 106 % of control.
`CN(/N=C(C#N)/C(N)=N/NC(=O)c1ccccc1)c1ccccc1` was tested, and the T/C (dose: 25.0 mg/kg/injection, schedule: Q04DX002 (ip), vehicle: saline with Tween-80) was 103 % of control, the T/C [14] was 96 % of control and the T/C [15] was 96 % of control.
For `Cc1ccc(S(=O)(=O)OC[C@H]2CCCC[C@H]2COS(=O)(=O)c2ccc(C)cc2)cc1`, the T/C (dose: 100.0 mg/kg/injection, schedule: Q04DX003 (ip), vehicle: Klucel (hydroxypropylcellulose) (HPC)) was 113 % of control, the T/C (dose: 200.0 mg/kg/injection, schedule: Q04DX003 (ip), vehicle: Klucel (hydroxypropylcellulose) (HPC)) was 114 % of control and the T/C (dose: 400.0 mg/kg/injection, schedule: Q04DX003 (ip), vehicle: Klucel (hydroxypropylcellulose) (HPC)) was 119 % of control.
For `COC(=O)c1ccccc1SSCCN`, the T/C (dose: 12.5 mg/kg/injection, schedule: Q01DX005 (ip), vehicle: saline with Tween-80) was 100 % of control, the T/C (dose: 25.0 mg/kg/injection, schedule: Q01DX005 (ip), vehicle: saline with Tween-80) was 106 % of control and the T/C [11] was 101 % of control and 109 % of control.
`CC(C)(C)c1ccc(OP(=S)(N/N=C/c2ccccc2O)Oc2ccc(C(C)(C)C)cc2)cc1` was tested, and the T/C [1] was 94 % of control, the T/C [2] was 88 % of control and the T/C [3] was 93 % of control and 95 % of control. The T/C [4] was 95 % of control and the T/C [5] was 95 % of control.
For `CCOC(=O)\C(C#N)=C/C=C/C(C)=C/Nc1ccc([N+](=O)[O-])cc1[N+](=O)[O-]`, the T/C [16] was 91 % of control, the T/C [17] was 91 % of control and the T/C [18] was 102 % of control.
For `NC1C(NO)OC(CO)C(O)C1O` (centres undefined), the T/C [8] was 97 % of control, the T/C [9] was 96 % of control and the T/C [10] was 97 % of control.
`Clc1ccccc1N/N=c1\nnc2c(Cl)cccc2s1` was tested, and the T/C [14] was 95 % of control, the T/C [15] was 94 % of control and the T/C (dose: 200.0 mg/kg/injection, schedule: Q04DX002 (ip), vehicle: saline with Tween-80) was 91 % of control.
In the case of `Cc1ccc(S(=O)(=O)N/N=C2/C=CC3(CC=CCC3)CC2)cc1` (centres undefined), the T/C (dose: 50.0 mg/kg/injection, schedule: Q01DX009 (ip), vehicle: Klucel (hydroxypropylcellulose) (HPC)) is reported as 109 % of control, the T/C (dose: 100.0 mg/kg/injection, schedule: Q01DX009 (ip), vehicle: Klucel (hydroxypropylcellulose) (HPC)) is reported as 100 % of control and the T/C (dose: 200.0 mg/kg/injection, schedule: Q01DX009 (ip), vehicle: Klucel (hydroxypropylcellulose) (HPC)) is reported as 100 % of control.
In the case of `COc1cccc2c1C(=O)c1c(O)c3c(c(O)c1C2=O)C[C@@](O)(C(=O)COC(=O)Cc1ccccc1)C[C@@H]3OC1CC(N)C(O)C(C)O1` (some centres undefined), the T/C (dose: 1.0 mg/kg/injection, schedule: Q01DX009 (ip), vehicle: saline with Tween-80) is reported as 166 % of control and 194 % of control, the T/C (dose: 1.32 mg/kg/injection, schedule: Q01DX009 (ip), vehicle: saline sonified) is reported as 195 % of control and the T/C (dose: 2.0 mg/kg/injection, schedule: Q01DX009 (ip), vehicle: saline sonified) is reported as 215 % of control. For the same compound, the T/C (dose: 2.0 mg/kg/injection, schedule: Q01DX009 (ip), vehicle: saline with Tween-80) was 151 % of control and 166 % of control and 212 % of control, the T/C (dose: 3.0 mg/kg/injection, schedule: Q01DX009 (ip), vehicle: saline sonified) was 270 % of control and the T/C (dose: 16.0 mg/kg/injection, schedule: Q01DX009 (ip), vehicle: saline with Tween-80) was 105 % of control.
For `O=C(O)c1cccc2c1Oc1c(cccc1C(=O)O)S2`, the T/C [11] was 98 % of control, the T/C [12] was 107 % of control and the T/C [13] was 108 % of control.
In the case of `COCCc1nnnn1C`, the T/C [11] is reported as 102 % of control, the T/C [12] is reported as 98 % of control and the T/C [13] is reported as 114 % of control.
With `CC12COC3(C)CCC(C)(OC1)N23` (centres undefined) the T/C [3] was 100 % of control, the T/C [4] was 97 % of control and the T/C [5] was 103 % of control.
`CC12c3ccccc3C(C)(c3ccccc31)C(C(=O)O)C2Br` (centres undefined) was tested, and the T/C [16] was 100 % of control, the T/C [17] was 103 % of control and the T/C [18] was 95 % of control.
